Laboratory results from patent US8802597B2, “Herbicidal pyrimidines” (E I du Pont de Nemours and Company, priority 2003, dated 2014).

Legend:
Assay in all cases: Test A pre/postemergence
Format in all cases: in vivo
[1] = test system: barnyardgrass (Echinochloa crus-galli)
Procedure: (§1) Seeds of barnyardgrass (Echinochloa crus-galli), crabgrass (Digitaria sanguinalis), giant foxtail (Setaria faberi), morningglory (Ipomoea spp.), redroot pigweed (Amaranthus retroflexus) and velvetleaf (Abutilon theophrasti) were planted into a blend of loam soil and sand and treated preemergence with a directed soil spray using test chemicals formulated in a non-phytotoxic solvent mixture which included a surfactant. At the same time these species were also treated with postemergence applications of test chemicals formulated in the same manner.
(§2) Plants ranged in height from 2 to 10 cm and were in the 1- to 2-leaf stage for the postemergence treatment. Treated plants and untreated controls were maintained in a greenhouse for approximately ten days, after which time all treated plants were compared to untreated controls and visually evaluated for injury. Plant response ratings, summarized in Table A, are based on a 0 to 100 scale where 0 is no effect and 100 is complete control. A dash (-) response means no test results.

[2] = test system: crabgrass (Digitaria sanguinalis)
Procedure: as §1, §2

[3] = test system: giant foxtail (Setaria faberi)
Procedure: as §1, §2

[4] = test system: morningglory (Ipomoea spp.)
Procedure: as §1, §2

[5] = test system: redroot pigweed (Amaranthus retroflexus)
Procedure: as §1, §2

[6] = test system: velvetleaf (Abutilon theophrasti)
Procedure: as §1, §2

[7] = Postemergence, 125 g ai/ha, 0 to 100 scale (0 no effect, 100 complete control)
[8] = Postemergence, 500 g ai/ha, 0 to 100 scale (0 no effect, 100 complete control)
[9] = Preemergence, 125 g ai/ha, 0 to 100 scale where 0 is no effect and 100 is complete control, approximately ten days
[10] = Preemergence, 500 g ai/ha, 0 to 100 scale where 0 is no effect and 100 is complete control, approximately ten days

## CCOC(=O)c1nc(-c2cc(Br)cc(OC)c2)nc(N)c1Cl [Compound 101]
[1]; [7]
  Plant response rating, Barnyardgrass: 0
[1]; [8]
  Plant response rating, Barnyardgrass: 0
[1]; [9]
  Plant response rating, Barnyardgrass: 0
[1]; [10]
  Plant response rating, Barnyardgrass: 0
[2]; [7]
  Plant response rating, Crabgrass: 0
[2]; [8]
  Plant response rating, Crabgrass: 0
[2]; [9]
  Plant response rating, Crabgrass: 0
[2]; [10]
  Plant response rating, Crabgrass: 0
[3]; [7]
  Plant response rating, Foxtail, Giant: 0
[3]; [8]
  Plant response rating, Foxtail, Giant: 0
[3]; [9]
  Plant response rating, Foxtail, Giant: 0
[3]; [10]
  Plant response rating, Foxtail, Giant: 0
[4]; [7]
  Plant response rating, Morningglory: 0
[4]; [8]
  Plant response rating, Morningglory: 0
[4]; [9]
  Plant response rating, Morningglory: 0
[4]; [10]
  Plant response rating, Morningglory: 0
[5]; [7]
  Plant response rating, Pigweed: 0
[5]; [8]
  Plant response rating, Pigweed: 5
[5]; [9]
  Plant response rating, Pigweed: 0
[5]; [10]
  Plant response rating, Pigweed: 0
[6]; [7]
  Plant response rating, Velvetleaf: 0
[6]; [8]
  Plant response rating, Velvetleaf: 15
[6]; [9]
  Plant response rating, Velvetleaf: 0
[6]; [10]
  Plant response rating, Velvetleaf: 0
